Measured values published in paper PMC11714206, “Massively Parallel Screening of Toll/Interleukin‐1 Receptor (TIR)‐Derived Peptides Reveals Multiple Toll‐Like Receptors (TLRs)‐Targeting Immunomodulatory Peptides” (Advanced Science, 2024).
One block for each sequence: values may come before it.

Molecular target: T1, MyD88^TIR (Homo sapiens, UniProt Q99836)
T1 construct: MyD88 (residues 148–296); 6xHis; made in house; host or cells: E. coli BL21 (DE3)
Assay: T‐Surf phage library (P8 and P3) selection against MyD88^TIR, four rounds, NGS read counts
Type: binding
Conditions: for P3_MyD88 Rank (after) / P3_MyD88 Rank (before): P3 library; for P8_MyD88 Rank (after) / P8_MyD88 Rank (before): P8 library
Protocol: T‐Surf libraries were screened against the immobilized TIR domains of two major human TLR adaptor proteins, MAL^TIR and MyD88^TIR, allowing cross‐species selection of TIR‐binding motifs with 190 946 TIR‐derived peptides in a single binding assay (Scheme 1). Enriched phage pools from the fourth round of selection were analyzed using NGS after barcoding the peptide‐coding regions of the phage pools.
Phage display screening was performed by coating two wells of a 96‐well plate (Maxisorp, Thermo Fisher Scientific) with 100 µL of 5 µg mL^−1 TIR domains overnight; then, the coated wells were blocked with 200 µL of blocking buffer (0.2% BSA in PBS) and set aside for 1 h at 4 °C with gentle shaking. Next, 100 µL of the phage library was added to the wells and incubated for 1 h at room temperature (RT; 20 – 22 °C) with gentle shaking. The plate was washed four times with PBS containing 0.5% Tween‐20; the bound phages were eluted by adding 100 µL of 100 mM HCl to each well. The elute was neutralized with 10 µL of 1.0 M Tris‐HCl (pH 11.0). E. coli TG1 cells were grown to the log phase (A600 = ≈0.6), and 1 mL of the culture was incubated with 100 µL of the eluted phages for 30 min at 37 °C, with shaking at 200 rpm. Next, 1 µL of M13KO7 helper phages was added, followed by incubation for 45 min at 37 °C, with shaking. Subsequently, the cells were transferred to 25 mL of 2× yeast extract tryptone/carbenicillin/kanamycin medium and incubated overnight at 37 °C with shaking at 200 rpm. The amplified phages were precipitated with 20% PEG‐8000/2.5 M NaCl to be used for the next round of selection.
The naïve T‐Surf libraries in P8 and P3 and the enriched phage pools after four rounds were barcoded for NGS as previously described.^[ [59] ^] Briefly, 5 µL of the phage pool was used as a template for 20 cycles of a 50 µL PCR reaction using […] each of forward and reverse barcoded primers and PrimeSTAR Max DNA Polymerase. The PCR products were purified using Expin Gel SV (GeneAll). The NGS samples were quantified using qPCR, following the qPCR Quantification Protocol Guide (KAPA Library Quantification kits for Illumina Sequencing Platform), and qualified using the TapeStation High Sensitivity D1000 ScreenTape (Agilent Technologies). The indexed libraries were further sequenced by Macrogen (Seoul, Republic of Korea) using the NovaSeq platform (Illumina) with 100 bp paired‐end reads. The reads were demultiplexed by barcodes and filtered for an average Phred quality score of at least 30, followed by trimming the flanking consensus sequences using Cutadapt (version 2.3). Peptide sequence populations were analyzed according to the read counts.

[1] = P3_MyD88: rank by count after grouping
[2] = P3_MyD88: rank by count before grouping
[3] = selection against MyD88 TIR, rank by count after grouping
[4] = selection against MyD88 TIR, rank by count before grouping
[5] = P8_MyD88: rank by NGS read count after grouping
[6] = P8_MyD88: rank by NGS read count before grouping
[7] = 4R selection against MyD88, rank after grouping
[8] = 4R selection against MyD88, rank before grouping
[9] = selection against MyD88, rank by count after grouping
[10] = selection against MyD88, rank by count before grouping
[11] = selection against MyD88, rank after grouping
[12] = selection against MyD88, rank before grouping
[13] = P8_MyD88: rank by count after grouping
[14] = P8_MyD88: rank by count before grouping

T1 sequence (Q99836 148-296): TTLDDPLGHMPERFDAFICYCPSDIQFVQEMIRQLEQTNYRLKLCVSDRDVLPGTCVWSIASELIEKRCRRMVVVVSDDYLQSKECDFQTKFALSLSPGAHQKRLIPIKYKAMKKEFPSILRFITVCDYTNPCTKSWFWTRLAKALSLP

- Rank (after) [1]: 108
- Rank (before) [2]: 953
Sequence: DHHLDLPRGKAIKPEIL

- Rank (after) [1]: 466
- Rank (before) [2]: 1885
Sequence: AVVRETQKIQPQRKNA

- Rank (after) [1]: 459
- Rank (before) [2]: 3253
Sequence: SSLLEGRWALLELSKK

- P3_MyD88 Rank (after) [3]: 209
- P3_MyD88 Rank (before) [4]: 3257
Sequence: SSLREGLWRLLELSKR

- Rank (after) [5]: 1011
- Rank (before) [6]: 3504
Sequence: PQELECIYKRLVSLIL

- P3_MyD88 Rank (after) [7]: 591
- P3_MyD88 Rank (before) [8]: 2866
Sequence: QGDPSYRLTLHYRDVN

- P8_MyD88 Rank (after) [9]: 739
- P8_MyD88 Rank (before) [10]: 3407
Sequence: PDEVKRTVGLTFSLSL

- P8_MyD88 Rank (after) [9]: 751
- P8_MyD88 Rank (before) [10]: 3445
Sequence: PQDLEWFYERGEPDS

- P3_MyD88 Rank (after) [11]: 555
- P3_MyD88 Rank (before) [12]: 2035
Sequence: DHHLDLPRGKANKPEILD

- P8_MyD88 Rank (after) [11]: 482
- P8_MyD88 Rank (before) [12]: 3246
Sequence: LGYHWIGWEYCVGIED

- Rank (after) [13]: 413
- Rank (before) [14]: 814
Sequence: FDASTWWLRELLQIA

- Rank (after) [13]: 405
- Rank (before) [14]: 2994
Sequence: DPQELEGVYERLVSLF

- Population (P3_MyD88 pool: P3 T-Surf phage library, 4th round of selection against MyD88 TIR, share of NGS reads): 0.00349%
Sequence: KDVEGWRDALTKVASL

- P8_MyD88 Rank (after) [7]: 582
- P8_MyD88 Rank (before) [8]: 3130
Sequence: DSVCLDRLLYSLHVTE

- Rank (after) [5]: 1006
- Rank (before) [6]: 2846
Sequence: DPQDLECVYERLVSLF

- Rank (after) [13]: 176
- Rank (before) [14]: 201
Sequence: WGQAVTEDLWGWLFNP

- P8_MyD88 Rank (after) [3]: 213
- P8_MyD88 Rank (before) [4]: 296
Sequence: FDYELQQSLFHALIMR

- Rank (after) [1]: 415
- Rank (before) [2]: 3270
Sequence: SSGRECLWRLLELRKK

- Rank (after) [1]: 114
- Rank (before) [2]: 1074
Sequence: LKVEAGVRRWKKRAN

- P3_MyD88 Rank (after) [7]: 603
- P3_MyD88 Rank (before) [8]: 1852
Sequence: GRYDELFMTETDERKC

- P8_MyD88 Rank (after) [7]: 661
- P8_MyD88 Rank (before) [8]: 2961
Sequence: DPQDPDRNYERMVSRL

- Rank (after) [1]: 190
- Rank (before) [2]: 1344
Sequence: FLSYRSLEKRFGPIGP

- P8_MyD88 Rank (after) [7]: 662
- P8_MyD88 Rank (before) [8]: 2790
Sequence: DPQDLDWFYERREPA

- Rank (after) [5]: 870
- Rank (before) [6]: 2072
Sequence: YLRADELLKILYANETM

- P8_MyD88 Rank (after) [9]: 689
- P8_MyD88 Rank (before) [10]: 2982
Sequence: DPQELDWFYELLVSPF

- P3_MyD88 Rank (after) [7]: 663
- P3_MyD88 Rank (before) [8]: 3520
Sequence: NQWRNALTEAAHLSGW

- Rank (after) [13]: 469
- Rank (before) [14]: 3707
Sequence: SAAYGDYWVRQIRMIE

- P8_MyD88 Rank (after) [9]: 753
- P8_MyD88 Rank (before) [10]: 3609
Sequence: IWVWDFYNSQLEGPMG

- P3_MyD88 Rank (after) [11]: 531
- P3_MyD88 Rank (before) [12]: 2536
Sequence: LKEESWRRAQEKAGKL

- Rank (after) [5]: 919
- Rank (before) [6]: 3280
Sequence: LGYHWIDWEDFVGIEN

- P8_MyD88 Rank (after) [11]: 526
- P8_MyD88 Rank (before) [12]: 3060
Sequence: DIEYIHLFWDRLLYSL

- Rank (after) [13]: 395
- Rank (before) [14]: 1410
Sequence: WALAELLQLLHARELF

- P8_MyD88 Rank (after) [7]: 665
- P8_MyD88 Rank (before) [8]: 3831
Sequence: NYGSSSWALEELAHIIE

- Rank (after) [1]: 183
- Rank (before) [2]: 3200
Sequence: SSFREGLWSLLELSKN

- P8_MyD88 Rank (after) [11]: 498
- P8_MyD88 Rank (before) [12]: 1587
Sequence: WDFASTMEQLWARLYY

- P8_MyD88 Rank (after) [9]: 681
- P8_MyD88 Rank (before) [10]: 1297
Sequence: FFSGFREQEDFISKRW

- P3_MyD88 Rank (after) [7]: 658
- P3_MyD88 Rank (before) [8]: 2990
Sequence: SENYATSPWAPELLR

- Rank (after) [5]: 920
- Rank (before) [6]: 1639
Sequence: WDCASNMEQFWDLPYY

- P8_MyD88 Rank (after) [11]: 563
- P8_MyD88 Rank (before) [12]: 2191
Sequence: VANILGYHWMDWVYFV

- P8_MyD88 Rank (after) [9]: 700
- P8_MyD88 Rank (before) [10]: 2416
Sequence: DWVWDYLLPDLLGPAG

- P3_MyD88 Rank (after) [9]: 714
- P3_MyD88 Rank (before) [10]: 1574
Sequence: YLKWGYVVLGSSAFC
